Data as given in US8119640B2, “Hedgehog pathway antagonists methods of use” (The Board of Trustees of the Leland Stanford Junior …, priority 2008, dated 2012).

How the values were obtained:
FLAG-Gli1 [1] = experiment: Analysis of Gli1 stability; assay type: cell-based, mouse; details: Shh-LIGHT2 FLAG-Gli1 cells, 24 h
Protocol: Analysis of Gli1 stability. […] The cells were maintained under these conditions for 24 h. The cells were subsequently solubilized in lysis buffer (100 μL/well; 50 mM Tris-HCl, pH 7.4, 1% Triton X-100, 250 mM NaCl, 2 mM EDTA, 20 mM NaF, 2 mM Na3VO4, 2 mM 2-mercaptoethanol, and EDTA-free protease inhibitor cocktail (Roche)). This suspension was transferred to a 1.5-mL centrifuge tube and incubated on ice for 30 min, with vortexing every 5 min. The cell lysates were then centrifuged at 20,000×g at 4° C. for 20 min. Supernatants were removed, and a BCA assay was performed to quantify protein levels. 15 μg […] of protein from each sample was solubilized in 1×SDS-PAGE sample buffer (50 mM Tris-HCl, pH 6.8 containing 10% glycerol, 2% SDS, 50 mM DTT, 200 mM 2-mercaptoethanol, and 0.001% bromophenol blue) and boiled for 5 min. The samples were then resolved on a 4-12% Bis-Tris Criterion XT gel and transferred to a PVDF membrane. The membrane was dehydrated with methanol, and then probed with mouse anti-FLAG M2 antibody (Sigma; 1:1,000 dilution in blocking buffer (PBS containing 3% non-fat dried milk and 0.01% Tween 20)) for 90 min. The blots were washed 4×5 min in PBS containing 0.01% Tween 20 and then probed with horseradish peroxidase-conjugated sheep anti-mouse IgG antibody (GE Healthcare; 1:10,000 dilution in blocking buffer) for 1 h. The membranes were washed again 4×3 min in PBS, and immunoreactive bands were detected with a SuperSignal West Dura kit and a ChemiDoc XRS system. To probe for loading controls, the blots were rinsed with PBS, incubated for 1 min in methanol, washed 3×5 min in PBS, and then re-blocked for 1 h in PBS containing 5% non-fat dried milk and 0.1% Tween 20. […] Protein bands were quantified using Quantity One software (Bio-Rad). FLAG-Gli1 and importin β1 bands were normalized to the average band intensities for each experiment. The ratio of these two values was then used to determine the relative amount of FLAG-Gli1 per condition. Results from three independent experiments were then averaged, and normalized to FLAG-Gli1 levels in DMSO-treated cells.

Gli2 αPKA = experiment: Hh pathway activation by overexpressed Gli2 phosphosite mutants; assay type: cell-based; details: NIH-3T3 cells; 15 μM HPI-1, 20 μM HPI-2
Protocol: Hh pathway activation mediated by the overexpression of Gli, Gli2, Gli2αPKA, or Gli2αGSK. […] The cells were co-transfected the following day with 220 ng/well pcDNA-derived Gli1, Gli2, or Gli2 phosphosite mutant expression vectors and 80 ng/well of a 1:15 mixture of phRLTK (Promega) and 8XGIiBS-FL. After transfection, cells were grown to confluence (approximately 48 h). The cell were then incubated for an additional 28-32 h in DMEM containing 0.5% CS, 100 U/mL penicillin, 0.1 mg/mL streptomycin, and either DMSO, 50 μM forskolin, 50 μM LY294002, or various concentrations of the HPIs. Firefly and Renilla luciferase activities were measured using a dual luciferase kit and a Veritas microplate luminometer.

CREB = experiment: PKA-mediated CREB phosphorylation assay; assay type: cell-based; details: NIH-3T3 cells; 15 μM HPI-1, 20 μM HPI-2
Protocol: PKA-mediated CREB phosphorylation assay. […] The cells were cultured for an additional 2 h and then lysed in hot 2×SDS-PAGE sample buffer (100 mM Tris, pH 6.8, 200 mM DTT, 0.02% bromophenol blue, 16 20 mM NaF, 2 mM sodium orthovandate, 4% SDS, and 20% glycerol). After the samples were boiled for 5 min, they were resolved on 4-12% Criterion XT gels (Bio-Rad) and transferred to PVDF membranes (Millipore). The membranes were blocked overnight in TBST buffer (Trisbuffered saline with 0.1% Tween 20) containing 5% bovine serum albumin and then probed with either anti-phosphorylated CREB (87G3, Cell Signaling Technology; 1:1,000 dilution) or CREB (48H2, Cell Signaling Technology, 1:1,000 dilution) antibodies.

FLAG-Gli1 [2] = experiment: Immunostaining of FLAG-Gli1 line: FLAG-Gli1 localization; assay type: cell-based, mouse; details: Shh-LIGHT2 FLAG-Gli1 cells
Protocol: Immunostaining of FLAG-Gli lines and NIH-3T3 cells. The FLAG-Gli1-expressing or FLAG-Gli2-expressing clonal cell lines were seeded into 24-well plates (80,000 cells/well) containing poly-D-lysine-coated 12-mm glass coverslips. […] The cells were subsequently fixed in 4% paraformaldehyde for 10 min at room temperature followed by treatment with methanol at −20° C. for 2 to 5 min. The cells were washed with PBS, permeabilized with 0.2% Triton X-100 for 2 to 5 min, and then blocked with PBS containing 2% BSA for 3 h at room temperature. […] In order to quantify ciliary Gli2 localization, a circular region with diameter equal to the average width of cilia as determined by the anti-Arl13b antibody staining was manually placed at the distal end of each cilium. Regions were transferred from the anti-Arl13b antibody image to the anti-FLAG antibody image, and FLAG staining intensities within those areas were assessed. Between 40 and 80 cilia were analyzed for each condition. To normalize ciliary FLAG-Gli2 levels with respect to compound-dependent changes in total FLAG-Gli2 levels, the absolute average intensities for each condition were divided by the fold change in FLAG-Gli2 levels, as determined by the quantitative immunoblotting described above. Quantification of ciliary FLAG-Gli1 levels was performed in an analogous manner. […]

COCCOC(=O)C1=C(C)NC2=C(C(=O)CC(c3ccccc3OC)C2)C1c1cccc(O)c1 (mixture of isomers) [Compound 8, 4-(3-Hydroxy-phenyl)-7-(2-methoxy-phenyl)-2-methyl-5-oxo-1,4,5,6,7,8-hexahydro-quinoline-3-carboxylic acid 2-methoxy-ethyl ester]
FLAG-Gli1 stability/levels (immunoblotting) (FLAG-Gli1 [1]): increased | Sensitivity of overexpressed Gli2 αPKA mutant to compound (Gli2 αPKA): partially resistant | PKA-dependent phosphorylation of CREB (CREB): does not induce the PKA-dependent phosphorylation

OCCNc1nc(N2CCN(c3ccccc3)CC2)nc2ccccc12 [Compound 11]
FLAG-Gli1 stability/levels (immunoblotting) (FLAG-Gli1 [1]): neither HPI-2 or HPI-3 had any significant effect on FLAG-Gli1 levels

COc1ccc(OC)c2c1cc1n2CC(C)(C(=O)NC2CCCCCCC2)N(CCN(C)C)C1=O (stereo not shown) [Compound 17]
FLAG-Gli1 stability/levels (immunoblotting) (FLAG-Gli1 [1]): neither HPI-2 or HPI-3 had any significant effect on FLAG-Gli1 levels | Sensitivity of overexpressed Gli2 αPKA mutant to compound (Gli2 αPKA): partially resistant | PKA-dependent phosphorylation of CREB (CREB): significantly lower than that observed in forskolin-treated cells

N#CC(C(=O)c1ccc(Cl)cc1Cl)=C1NC(=O)c2ccccc2N1 [Compound 18]
FLAG-Gli1 stability/levels (immunoblotting) (FLAG-Gli1 [1]): decreased | Ciliary FLAG-Gli1 levels (FLAG-Gli1 [2]): promoted accumulation of FLAG-Gli1 at the distal tip of this organelle relative to total FLAG-Gli1 levels | Subcellular localization of FLAG-Gli1 (FLAG-Gli1 [2]): reduced cytoplasmic levels of the transcription factor but retained nuclear FLAG-Gli1
